Results as given in ChEMBL document CHEMBL4477232, “Synthesis and evaluation of novel 1,2,3-triazole-based acetylcholinesterase inhibitors with neuroprotective activity” (Bioorg Med Chem Lett, 2016).
Active and inactive are the calls of the source. The rule behind the calls is not given here.

Tests used:
[1] = biological target: Acetylcholinesterase (Electrophorus electricus, UniProt O42275); assay: Inhibition of electric eel AChE preincubated for 6 mins followed by addition of acetylthiocholine iodide by Ellman's method
[2] = biological target: Cholinesterase (Equus caballus, UniProt P81908); assay: Inhibition of equine serum BuChE preincubated for 6 mins followed by addition of S-butyrylthiocholine iodide by Ellman's method
[3] = Selectivity ratio of IC50 for equine serum BuChE to IC50 for electric eel AChE
[4] = system: SH-SY5Y; assay: Neuroprotective activity against amyloid beta (25 to 35 residues)-induced cell damage in human SH-SY5Y cells assessed as cell viability at 10 uM preincubated for 2 hrs followed by amyloid beta (25 to 35 residues) addition measured after 24 hrs by MTT assay (reference value: 62.3 %); assay type: functional; conditions: for viability at 10 µM: read-out: Activity
[5] = system: SH-SY5Y; assay: Neuroprotective activity against amyloid beta (25 to 35 residues)-induced cell damage in human SH-SY5Y cells assessed as recovery of cell viability at 10 uM preincubated for 2 hrs followed by amyloid beta (25 to 35 residues) addition measured after 24 hrs by MTT assay; assay type: functional
[6] = system: SH-SY5Y; assay: Neuroprotective activity against amyloid beta (25 to 35 residues)-induced cell damage in human SH-SY5Y cells assessed as cell viability at 1 uM preincubated for 2 hrs followed by amyloid beta (25 to 35 residues) addition measured after 24 hrs by MTT assay (reference value: 62.3 %); assay type: functional; conditions: for viability at 1 µM: read-out: Activity
[7] = system: SH-SY5Y; assay: Neuroprotective activity against amyloid beta (25 to 35 residues)-induced cell damage in human SH-SY5Y cells assessed as recovery of cell viability at 1 uM preincubated for 2 hrs followed by amyloid beta (25 to 35 residues) addition measured after 24 hrs by MTT assay; assay type: functional
[8] = system: HaCaT; assay: Cytotoxicity against human HaCaT assessed as cell viability upto 400 uM after 24 hrs by MTT assay relative to control; assay type: cell-based
[9] = system: NIH3T3; assay: Cytotoxicity against mouse NIH/3T3 assessed as cell viability upto 400 uM after 24 hrs by MTT assay relative to control; assay type: cell-based; conditions: nih3t3, 24 h

Sequence of Acetylcholinesterase (O42275 whole entry): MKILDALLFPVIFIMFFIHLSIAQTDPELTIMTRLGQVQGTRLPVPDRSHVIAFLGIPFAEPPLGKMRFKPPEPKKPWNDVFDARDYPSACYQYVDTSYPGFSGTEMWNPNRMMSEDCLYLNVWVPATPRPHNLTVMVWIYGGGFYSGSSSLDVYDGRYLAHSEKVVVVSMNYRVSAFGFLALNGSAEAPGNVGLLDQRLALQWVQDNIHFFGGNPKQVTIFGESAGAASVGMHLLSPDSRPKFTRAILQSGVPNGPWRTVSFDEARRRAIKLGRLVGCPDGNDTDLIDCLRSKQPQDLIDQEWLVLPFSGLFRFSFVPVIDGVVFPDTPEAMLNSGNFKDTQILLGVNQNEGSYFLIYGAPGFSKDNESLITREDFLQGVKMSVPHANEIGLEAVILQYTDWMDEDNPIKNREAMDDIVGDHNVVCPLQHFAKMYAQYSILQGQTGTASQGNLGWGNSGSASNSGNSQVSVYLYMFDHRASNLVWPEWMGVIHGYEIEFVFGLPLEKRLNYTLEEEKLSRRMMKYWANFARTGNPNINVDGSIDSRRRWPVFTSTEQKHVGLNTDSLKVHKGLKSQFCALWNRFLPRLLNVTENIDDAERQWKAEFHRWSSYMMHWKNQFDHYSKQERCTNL
Sequence of Cholinesterase (P81908 whole entry): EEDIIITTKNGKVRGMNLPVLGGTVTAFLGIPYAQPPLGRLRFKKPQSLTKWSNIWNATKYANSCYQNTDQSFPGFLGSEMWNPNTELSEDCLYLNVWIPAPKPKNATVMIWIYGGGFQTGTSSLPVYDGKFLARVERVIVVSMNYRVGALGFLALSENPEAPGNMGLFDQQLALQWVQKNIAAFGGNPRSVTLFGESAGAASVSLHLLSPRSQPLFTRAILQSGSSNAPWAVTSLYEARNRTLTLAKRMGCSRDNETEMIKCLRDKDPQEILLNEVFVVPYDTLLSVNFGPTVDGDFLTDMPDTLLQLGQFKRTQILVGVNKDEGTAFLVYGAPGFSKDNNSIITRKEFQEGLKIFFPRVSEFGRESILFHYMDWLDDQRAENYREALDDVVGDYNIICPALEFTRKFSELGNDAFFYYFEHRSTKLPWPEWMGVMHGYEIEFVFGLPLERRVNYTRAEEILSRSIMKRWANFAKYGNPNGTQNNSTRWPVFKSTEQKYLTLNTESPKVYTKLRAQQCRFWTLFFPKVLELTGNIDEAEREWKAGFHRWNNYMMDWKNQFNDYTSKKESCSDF

| SMILES | IC50 [1] [µM] | IC50 [2] [µM] | Ratio IC50 [3] | also measured |
| --- | --- | --- | --- | --- |
| Cc1ccc(-c2cn(Cc3ccc(C#N)cc3)nn2)cc1C(=O)NCCN1CCOCC1 | 12.1 | 92.8 | 7.6 | viability at 10 µM [4]: 78.9%; Activity [5]: 16.6%; Activity [6]: inactive; Activity [7]: inactive; Activity [8]: Non-Toxic; Activity [9]: Non-Toxic |
| Cc1ccc(-c2cn(Cc3ccc([N+](=O)[O-])cc3)nn2)cc1C(=O)NCCN1CCOCC1 | 20.4 | 60.5 | 2.9 | – |
| Cc1ccc(-c2cn(Cc3ccc(OC(F)(F)F)cc3)nn2)cc1C(=O)NCCN1CCOCC1 | 30.2 | 60.2 | 2 | – |
| Cc1ccc(-c2cn(Cc3ccc(F)cc3F)nn2)cc1C(=O)NCCN1CCOCC1 | 24.4 | 89.6 | 3.7 | – |
| Cc1ccc(-c2cn(Cc3ccc(S(N)(=O)=O)cc3)nn2)cc1C(=O)NCCN1CCOCC1 | 30.3 | 45.5 | 1.5 | – |
| Cc1cc(F)ccc1Cn1cc(-c2ccc(C)c(C(=O)NCCN3CCOCC3)c2)nn1 | 37.6 | 61 | 1.6 | – |
| O=C(O[C@@H]1Cc2c(O)cc(O)cc2O[C@@H]1c1cc(O)c(O)c(O)c1)c1cc(O)c(O)c(O)c1 [EPIGALOCATECHIN GALLATE] | – | – | – | viability at 10 µM [4]: 95.7%; Activity [5]: 33.4% |
| COc1ccc(Br)c(Cn2cc(-c3ccc(C)c(C(=O)NCCN4CCOCC4)c3)nn2)c1 | 40.8 | 50.8 | 1.2 | – |
| Cc1ccc(-c2cn(Cc3ccccc3Cl)nn2)cc1C(=O)NCCN1CCOCC1 | 31.3 | 34.5 | 1.1 | – |
| Cc1ccc(-c2cn(Cc3ccc(F)cc3)nn2)cc1C(=O)NCCN1CCOCC1 | 21.2 | 43.7 | 2.1 | – |
| C#Cc1ccc(C)c(C(=O)NCCN2CCOCC2)c1 | > 100 | – | – | – |
| Cc1ccc(Cn2cc(-c3ccc(C)c(C(=O)NCCN4CCOCC4)c3)nn2)cc1 | 60.1 | 83.1 | 1.4 | – |
| Cc1ccc(-c2cn(Cc3ccc(F)c([N+](=O)[O-])c3)nn2)cc1C(=O)NCCN1CCOCC1 | 30.1 | 34.8 | 1.2 | – |
| Cc1ccc(-c2cn(Cc3ccc(F)c(F)c3)nn2)cc1C(=O)NCCN1CCOCC1 | 15.4 | 95.4 | 6.2 | viability at 10 µM [4]: 89.4%; Activity [5]: 27.1%; viability at 1 µM [6]: 70.3%; Activity [7]: 8%; Activity [8]: Non-Toxic; Activity [9]: Non-Toxic |
| Cc1ccc(-c2cn(Cc3ccc(Br)cc3)nn2)cc1C(=O)NCCN1CCOCC1 | 20.5 | 45.6 | 2.2 | – |
| Cc1ccc(-c2cn(Cc3cccc(Br)c3)nn2)cc1C(=O)NCCN1CCOCC1 | 28.4 | 40.3 | 2 | – |
| Cc1ccc(-c2cn(Cc3ccc(F)cc3Cl)nn2)cc1C(=O)NCCN1CCOCC1 | 10.4 | 68.9 | 6.6 | Activity [4]: inactive; Activity [5]: inactive |
| Cc1ccc(-c2cn(Cc3ccc4ccccc4c3)nn2)cc1C(=O)NCCN1CCOCC1 | 7.23 | 90.8 | 12.6 | viability at 10 µM [4]: 96.5%; Activity [5]: 34.2%; viability at 1 µM [6]: 77.9%; Activity [7]: 15.6%; Activity [8]: Non-Toxic; Activity [9]: Non-Toxic |
| COC(=O)/C=C/c1ccc(Cn2cc(-c3ccc(C)c(C(=O)NCCN4CCOCC4)c3)nn2)cc1 | 44.7 | 90.9 | 2 | – |
| COC(=O)c1ccc(Cn2cc(-c3ccc(C)c(C(=O)NCCN4CCOCC4)c3)nn2)cc1 | 38.4 | 67.8 | 1.8 | – |
| Cc1ccc(-c2cn(Cc3cccc4ccccc34)nn2)cc1C(=O)NCCN1CCOCC1 | 46.2 | 72.9 | 1.58 | – |
| Cc1ccc(-c2cn(Cc3cccc(Cl)c3)nn2)cc1C(=O)NCCN1CCOCC1 | 32.6 | 36.3 | 1.1 | – |
| Cc1ccc(-c2cn(Cc3ccccc3C(F)(F)F)nn2)cc1C(=O)NCCN1CCOCC1 | 34.1 | 45.1 | 1.3 | – |
| Cc1ccc(-c2cn(Cc3cccc(F)c3)nn2)cc1C(=O)NCCN1CCOCC1 | 30.1 | 60.8 | 1.2 | – |
| Cc1ccc(-c2cn(Cc3ccc(F)cc3Br)nn2)cc1C(=O)NCCN1CCOCC1 | 31.4 | 70.8 | 2.3 | – |
| Cc1ccc(-c2cn(Cc3ccc(C(F)(F)F)cc3)nn2)cc1C(=O)NCCN1CCOCC1 | 27.4 | – | – | viability at 10 µM [4]: 85.2%; Activity [5]: 22.9%; Activity [6]: inactive; Activity [7]: inactive |
| Cc1cc(C)cc(Cn2cc(-c3ccc(C)c(C(=O)NCCN4CCOCC4)c3)nn2)c1 | 64.2 | 56.2 | 0.9 | – |
| Cc1ccc(-c2cn(C)nn2)cc1C(=O)NCCN1CCOCC1 | 45.2 | 68.1 | 1.5 | – |
| Cc1ccc(-c2cn(Cc3ccccc3F)nn2)cc1C(=O)NCCN1CCOCC1 | 39.3 | 47.2 | 2 | – |
| Cc1ccc(-c2cn(Cc3ccccc3Br)nn2)cc1C(=O)NCCN1CCOCC1 | 35.2 | 78.6 | 2.2 | – |
